Assay results as given in patent US7189729B2, “Methods and compositions as protein kinase inhibitors” (IRM LLC, priority 2003, dated 2007).

Target: b-Raf (Homo sapiens, UniProt P15056)
Assay: b-Raf inhibition assay (IκBα substrate, 384-well plate)
Type: biochemical
Description: Compounds of the invention are tested for their ability to inhibit the activity of b-Raf. The assay is carried out in 384-well MaxiSorp plates (NUNC) with black walls and clear bottom. The substrate, IκBα is diluted in DPBS (1:750) and 15 μl is added to each well. The plates are incubated at 4° C. overnight and washed 3 times with TBST (25 mM Tris, pH 8.0, 150 mM NaCl and 0.05% Tween-20) using the EMBLA plate washer. Plates are blocked by Superblock (15 μl/well) for 3 hours at room temperature, washed 3 times with TBST and pat-dried. Assay buffer containing 20 μM ATP (10 μl) is added to each well followed by 100 nl or 500 nl of compound. B-Raf is diluted in the assay buffer (1 μl into 25 μl) and 10 μl of diluted b-Raf is added to each well ([…]). The plates are incubated at room temperature for 2.5 hours. The kinase reaction is stopped by washing the plates 6 times with TBST. Phosph-IκBα (Ser32/36) antibody is diluted in Superblock (1:10,000) and 15 μl is added to each well. The plates are incubated at 4° C. overnight and washed 6 times with TBST. AP-conjugated goat-anti-mouse IgG is diluted in Superblock (1:1,500) and 15 μl is added to each well. Plates are incubated at room temperature for 1 hour and washed 6 times with TBST. […] Plates are read on Acquest or Analyst GT using a Fluorescence Intensity Nanxin BBT anion (505 dichroic mirror).

Sequence of b-Raf (P15056 whole entry): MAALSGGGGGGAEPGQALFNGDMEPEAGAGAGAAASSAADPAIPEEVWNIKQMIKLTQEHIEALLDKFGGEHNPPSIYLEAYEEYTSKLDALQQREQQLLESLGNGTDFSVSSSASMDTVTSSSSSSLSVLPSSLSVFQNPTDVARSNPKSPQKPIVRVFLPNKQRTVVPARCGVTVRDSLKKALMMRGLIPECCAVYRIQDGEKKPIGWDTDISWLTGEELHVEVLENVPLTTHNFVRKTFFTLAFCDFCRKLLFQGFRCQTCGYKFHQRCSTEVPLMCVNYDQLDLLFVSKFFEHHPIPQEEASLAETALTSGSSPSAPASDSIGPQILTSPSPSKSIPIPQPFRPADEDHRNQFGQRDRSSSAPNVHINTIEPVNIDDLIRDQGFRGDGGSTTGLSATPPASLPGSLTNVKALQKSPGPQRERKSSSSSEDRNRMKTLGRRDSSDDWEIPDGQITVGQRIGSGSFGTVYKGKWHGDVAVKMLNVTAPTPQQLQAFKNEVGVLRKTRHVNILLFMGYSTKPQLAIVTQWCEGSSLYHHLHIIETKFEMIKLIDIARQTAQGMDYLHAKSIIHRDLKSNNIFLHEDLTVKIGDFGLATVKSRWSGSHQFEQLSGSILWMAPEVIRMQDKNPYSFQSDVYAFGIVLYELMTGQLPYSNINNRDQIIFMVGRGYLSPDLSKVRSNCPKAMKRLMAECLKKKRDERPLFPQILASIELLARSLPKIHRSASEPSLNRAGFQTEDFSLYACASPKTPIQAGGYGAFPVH

CN1CCN(Cc2ccc(C(=O)Nc3cccc(Nc4ccccc4-c4cc(Nc5cccc(N(C)C)c5)ncn4)c3)cc2)CC1 [Example 1, N-(3-{2-[6-(3-Dimethylamino-phenylamino)-pyrimidin-4-yl]-phenylamino}-phenyl)-4-(4-methyl-piperazin-1-ylmethyl)-benzamide]
IC50: 667 nM
